Test results published in PMC5325331, “A steroid like phytochemical Antcin M is an anti-aging reagent that eliminates hyperglycemia-accelerated premature senescence in dermal fibroblasts by direct activation of Nrf2 and SIRT-1” (Oncotarget, 2016).
Where two headings read alike, the source gives them in different places.

Assays:
HNDFs [1] = assay: Cell proliferation, trypan blue exclusion assay in HG-induced HNDFs; format: cell-based, human; conditions: with HG (30 mM) for 72 h (Figure 2D)
Description: Cell proliferation was evaluated using trypan blue exclusion assay as described previously with minor modification. Cells were plated into 6-well plates at a density of 5 × 10^4 cells/well. After incubation overnight, cells were treated with test samples in the presence or absence of HG for 24-72 h. Cells exposed to 0.2% Trypan blue were then counted in a hemocytometer, and cells stained with Trypan blue were excluded. Percentage of viable cells was calculated based on the ratio of viable cells to total cell population in each well. The proliferation rate was calculated based on the number of viable cells in HG or sample-treated groups versus the NG-treated group.

HNDFs [2] = assay: SA-β-gal senescence assay in HG-induced HNDFs; format: cell-based, human; conditions: for SA-β-gal positive cells: 10 μM with HG (30 mM) for 72 h, HG alone 9.59-fold (Figure 2B); for HG-induced SA-β-gal activity in kinase inhibitor-treated cells: inhibitor 30 μM with HG (30 mM) for 72 h (Figure 4H)
Description: (§1) Human normal dermal fibroblasts (HNDFs, CCD966SK) and human umbilical vein endothelial cells (HUVECs) were obtained from the Bioresource Collection and Research Center (BCRC), Hsinchu, Taiwan. HNDFs were grown in MEM containing 10% FBS, 2 mM L-glutamine, 100 U/mL penicillin and streptomycin at 37°C in a fully humidified atmosphere of 5% CO2. Likewise, HUVECs were grown in M-199 medium supplemented with ECGS, heparin, 10% FBS and 100 U/mL penicillin and streptomycin at 37°C in a fully humidified atmosphere of 5% CO2. High-glucose treatment was performed by treating cells with 15 or 30 mM D-glucose (HG) for 24-72 h.
Senescence-associated β-galactosidase (SA-β-gal) activity was determined in formaldehyde-fixed histochemical staining kit according to the manufacturer's instructions (Cell Signaling Technology, Danvers, […]). Briefly, cells were grown in 6-well plates at a density of 5 × 10^4 cells/well, and incubated with HG or test samples for 48 h (HUVECs) or 72 h (HNDFs). After incubation, cells were stained with SA-β-gal staining solution at pH 6.0 overnight and then the development of blue staining was observed and photographed under a bright-field microscope (Motic Electric Group, Xiamen, P.R. China).

[3] = system: p16INK4A, p21CIP1 and SMP30; assay: Western blot of senescence-associated marker proteins in HG-induced HNDFs; format: cell-based, human; conditions: 10 μM with HG (30 mM) for 72 h, immunoblotting
Description: Cells were lysed by either RIPA lysis buffer or nuclear and cytoplasmic extraction reagents (Thermo Fisher Scientific). Protein concentrations were determined by Bio-Rad protein assay reagent (Bio-Rad Laboratories, Hercules, CA). Equal amounts of protein samples (60 μg) were separated by 7-12% SDS-PAGE and the separated proteins were transferred onto polyvinylidene […] (PVDC) membrane overnight. The transferred protein membranes were blocked with 5% non-fat dried milk for 30 min, followed by incubation with specific primary antibodies overnight, and either horseradish peroxidase-conjugated goat anti-rabbit or anti-mouse antibodies for 2 h. The blots were detected using VL Chemi-Smart 3000 (Viogene Biotek, Sunnyvale, CA) with the enhanced chemiluminescence (ECL) western blotting reagent (Millipore, Billerica, MA).

HNDFs [4] = assay: Cytotoxicity of antcins against HNDFs (MTT assay); format: cell-based, human; conditions: for IC50: MTT assay, read-out: IC50 (50% inhibitory concentration) against HNDFs; for cytotoxicity to HNDFs up to the high treatment concentration: up to 20 μM, 72 h, MTT
Description: Figure 2 Effects of antcins on HG-induced senescence in HNDFs A. Type of antcins subjected to screen for potential anti-aging agents for skin aging. Names and chemical structures of the antcins are shown in the left and centrer column, respectively. The cytotoxic effects of antcins against HNDFs. Briefly, HNDFs were incubated with increasing concentrations (1, 5, 10 and 20 μM) of antcins including antcin A, antcin B, antcin C, antcin H, anticn K and antcin M for 72 h and the cell viability was determined by MTT assay. The 50% inhibitory concentrations (IC50) of each compound against HNDFs are shown in right column. B. Cells were incubated with antcin A (10 μM), antcin H (10 μM) and antcin M (10 μM) in the presence of HG (30 mM) for 72 h. Cellular senescence was determined by SA-β-gal activity. […] C. HNDFs were incubated with antcin A (10 μM), antcin H (10 μM) and antcin M (10 μM) in the presence of HG (30 mM) for 72 h. Senescence-associated marker proteins such as p16^INK4A, p21^CIP1 and SMP30 were determined by western blot analysis. D. To determine the effect of antcins on cell proliferation efficacy, HNDFs 5 × 10^4 cells/well in 6-well plates were incubated with antcins in the presence of HG (30 mM) for 72 h. Number of viable cells were quantified by the tryphan blue exclusion method. Results are expressed as mean ± S.E.M of three indipendent expriments. Statistical significance was et at ^ФP < 0.05 compared to NG vs HG and *P < 0.05 compared to HG vs. samples.
as §1
Cell viability was assessed by MTT colorimetric assay. Briefly, HNDFs (2 × 10^4 cells/well) or HUVECs (5 × 10^4 cells/well) were seeded in a 24-well culture plate. After treatment with HG (15 and 30 mM) in the presence or absence of samples for 24-72 h, culture media was withdrawn and incubated with MTT (1 mg/mL) in fresh medium for 2 h. The MTT formazan crystals were dissolved in 400 μL of DMSO and the samples were measured at 570 nm […] using an ELISA microplate reader (Bio-Tek Instruments, Winooski, VT). The percentage of cell viability (%) was calculated as (A570 of treated cells/A570 of untreated cells) × 100.

[5] = system: Nrf2 transcriptional activity (ARE promoter); assay: ARE luciferase reporter assay in HNDFs; format: cell-based, human; conditions: for ANM-induced ARE luciferase activity after inhibitor pretreatment: inhibitor pre-incubation 2 h, then ANM 6 h in the presence of HG; for ARE luciferase activity: 6 h
Description: ARE promoter activity was measured using a dual-luciferase reporter assay system (Promega, Madison, WI). […] Cells were then transfected with ARE plasmid (Qiagen, Hilden, Germany) using Lipofectamine 2000 (Invitrogen) and incubated for 36 h. […] The cell lysate was prepared and incubated with luciferase agents and the relative luminescence intensity was quantified using a spectrophotometer (Hidex Oy, Turku, Finland).

HNDFs [6] = assay: Cell-cycle analysis by flow cytometry (PI) in HG-induced HNDFs; format: cell-based, human; conditions: NAC 100 μM with HG (30 mM) for 72 h
Description: HNDFs at a density of 5 × 10^5 cells in 10 cm dishes were treated with ANM or NAC in the presence or absence of HG for 72 h. Cells were collected, washed with PBS and fixed in 95% cold-ethanol, and kept at −20°C overnight. The cell pellet was then washed again with PBS and centrifuged at 1500 × g for 5 min. The pellet was re-suspended in 1 mL PI/Triton X-100 (20 μg/mL PI, 0.1% Triton X-100 and 0.2 mg/mL RNAse) and incubated on ice for 30 min. The total cellular DNA content was analyzed with a flow cytometer (Beckman Coulter FC500). Data were acquired and analyzed using CXP software (Beckman Coulter).

[7] = Cell-free DPPH free-radical scavenging assay
Description: Therefore, next to determine whether ANM acts directly as a free-radical scavenger, we performed a cell-free DPPH free-radical scavenging assay.
Figure 5 Antcin M activates Nrf2-dependent anti-oxidant defense in HNDFs A. To determine the free-radical scavenging effect of ANM, cell-free DPPH assay was performed. […] Results expressed as mean ± S.E.M of three indipendent expriments.

HNDFs [8] = assay: Flow cytometric detection of intracellular ROS (DCFH2-DA) in HNDFs; format: cell-based, human
Description: Intracellular ROS accumulation was determined using the dye DCFH2-DA following a procedure described earlier. Briefly, HNDFs (1 × 10^5 cells/well) were seeded in 6-well plates and incubated with HG in the presence or absence of test samples for 24 h. At the end of the incubation, the culture supernatant was removed and cells were washed twice with PBS. DCFH2-DA (10 μM) was mixed with 500 μL MEM and added to the culture plate. After incubation for 30 minutes, cells were collected by trypsin and the fluorescence shift was quantified using a flow cytometer (Beckman Coulter). Data were acquired and analyzed using CXP software (Beckman Coulter).

[9] = Homo sapiens, 72 h, 1, 5, 10 and 20 μM for 72 h

SMILES: C=C(CC[C@@H](C)[C@H]1CC[C@H]2C3=C(C(=O)C[C@]12C)[C@@]1(C)CCC(=O)[C@@H](C)[C@@H]1CC3)C(C)C(=O)O (stereo partly drawn) [ANA, antcin A]
- cell proliferation compared to the HG treatment group (HNDFs [1]): partially increased cell proliferation
- SA-β-gal positive cells (HNDFs [2]): 7.46 fold
- HG-induced upregulation of p16INK4A and p21CIP1 proteins [3]: moderate inhibition
- IC50 (HNDFs [4]; [9]): > 50 µM

SMILES: C=C(CC[C@@H](C)[C@H]1CC[C@H]2C3=C(C(=O)C[C@]12C)[C@@]1(C)CCC(=O)[C@@H](C)[C@@H]1CC3=O)[C@H](C)C(=O)O [ANB, antcin B]
- IC50 (HNDFs [4]; [9]): 7.11 µM

SMILES: C=C(CCC(C)C1CCC2C3=C(C(=O)CC21C)C1(C)CCC(=O)C(C)C1CC3O)C(C)C(=O)O (stereo not drawn) [ANC, antcin C]
- IC50 (HNDFs [4]; [9]): > 50 µM
- cytotoxicity to HNDFs up to the high treatment concentration (HNDFs [4]): did not show significant cytotoxicity

SMILES: C=C(CCC(C)C1CCC2C3=C(C(=O)C(O)C21C)C1(C)CCC(O)C(C)C1CC3=O)C(C)C(=O)O (stereo not drawn) [ANH, antcin H]
- cell proliferation compared to the HG treatment group (HNDFs [1]): partially increased cell proliferation
- SA-β-gal positive cells (HNDFs [2]): 8.13 fold
- HG-induced upregulation of p16INK4A and p21CIP1 proteins [3]: moderate inhibition
- IC50 (HNDFs [4]; 1, 5, 10 and 20 μM for 72 h): > 50 µM
- cytotoxicity to HNDFs up to the high treatment concentration (HNDFs [4]): did not show significant cytotoxicity

SMILES: C=C(CC[C@@H](C)[C@H]1CC[C@H]2C3=C(C(=O)C[C@]12C)[C@@]1(C)CC[C@@H](O)[C@](C)(O)[C@@H]1C[C@@H]3O)C(C)C(=O)O (stereo partly drawn) [ANK, antcin K]
- IC50 (HNDFs [4]; [9]): 2.89 µM

SMILES: O=c1cc(N2CCOCC2)oc2c(-c3ccccc3)cccc12 [LY294002, reference compound]
- HG-induced SA-β-gal activity in kinase inhibitor-treated cells (HNDFs [2]): reduced
- ANM-induced ARE luciferase activity after inhibitor pretreatment [5]: effectively suppressed

SMILES: CC(=O)N[C@@H](CS)C(=O)O [NAC, N-acetylcysteine, reference compound]
- HG-induced cell-cycle arrest (HNDFs [6]): partially blocked
- free-radical scavenging in the cell-free system [7]: potent free-radical scavenging effect
- ARE luciferase activity ([5]; ANM 10 μM or NAC 100 μM alone, control 1-fold): 6.3 fold
- ARE luciferase activity ([5]; co-treated with HG (30 mM), ANM 10 μM or NAC 100 μM, HG alone 2.5-fold): 8.2 fold
- HG-induced ROS generation (HNDFs [8]; ANM 10 μM or NAC 100 μM with HG (30 mM) for 24 h, HG alone 426.2%): 176.58%
- ROS generation, treatment alone (HNDFs [8]; ANM 10 μM or NAC 100 μM without HG, 24 h): did not significantly increase ROS generation

SMILES: COc1cccc(-c2cc(=O)c3ccccc3o2)c1N [PD98059, reference compound]
- HG-induced SA-β-gal activity in kinase inhibitor-treated cells (HNDFs [2]): did not affect
- ANM-induced ARE luciferase activity after inhibitor pretreatment [5]: effectively suppressed

SMILES: C[S+]([O-])c1ccc(-c2nc(-c3ccncc3)c(-c3ccc(F)cc3)[nH]2)cc1 (stereo not drawn) [SB203580, reference compound]
- HG-induced SA-β-gal activity in kinase inhibitor-treated cells (HNDFs [2]): barely observed
- ANM-induced ARE luciferase activity after inhibitor pretreatment [5]: partially or barely inhibited

SMILES: Oc1c2ccccc2c2c3c(cccc13)N=N2 [SP600125, reference compound]
- HG-induced SA-β-gal activity in kinase inhibitor-treated cells (HNDFs [2]): barely observed
- ANM-induced ARE luciferase activity after inhibitor pretreatment [5]: partially or barely inhibited
